In PubChem BioAssay AID330 (DTP/NCI, 2004):
Where “and” joins values, the source holds several entries; their conditions need not be identical. Identical values can stand only once. Inconclusive results and toxic doses are left out. Rule for the calls: active = survival T/C of 150% or more; inactive = T/C below 125% in these data.

Tested on: P388 leukemia ip, CD2F1 mice, survival T/C
Experiment: NCI In Vivo Anticancer Drug Screen. Data for tumor model P388 Leukemia (intraperitoneal) in CD2F1 (CDF1) mice
Conditions: endpoint: median survival time, higher = longer survival
In short: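 Mice carrying the transplanted tumor received test compound or vehicle. Survival was recorded in each group, and the value is the treated-group measurement divided by that of the vehicle-treated control group.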

[1] = dose: 50.0 mg/kg/injection, schedule: Q01DX009 (ip), vehicle: saline with Tween-80
[2] = dose: 100.0 mg/kg/injection, schedule: Q01DX009 (ip), vehicle: saline with Tween-80
[3] = dose: 200.0 mg/kg/injection, schedule: Q01DX009 (ip), vehicle: saline with Tween-80
[4] = dose: 120.0 mg/kg/injection, schedule: Q01DX005 (ip), vehicle: saline with Tween-80
[5] = dose: 100.0 mg/kg/injection, schedule: Q04DX003 (ip), vehicle: saline with Tween-80
[6] = dose: 200.0 mg/kg/injection, schedule: Q04DX003 (ip), vehicle: saline with Tween-80
[7] = dose: 400.0 mg/kg/injection, schedule: Q04DX003 (ip), vehicle: saline with Tween-80
[8] = dose: 50.0 mg/kg/injection, schedule: Q04DX003 (ip), vehicle: saline with Tween-80
[9] = dose: 25.0 mg/kg/injection, schedule: Q01DX005 (ip), vehicle: Klucel (hydroxypropylcellulose) (HPC)
[10] = dose: 50.0 mg/kg/injection, schedule: Q01DX005 (ip), vehicle: Klucel (hydroxypropylcellulose) (HPC)
[11] = dose: 50.0 mg/kg/injection, schedule: Q01DX005 (ip), vehicle: saline with Tween-80
[12] = dose: 100.0 mg/kg/injection, schedule: Q01DX005 (ip), vehicle: saline with Tween-80
[13] = dose: 200.0 mg/kg/injection, schedule: Q01DX005 (ip), vehicle: saline with Tween-80
[14] = dose: 12.5 mg/kg/injection, schedule: Q01DX005 (ip), vehicle: Klucel (hydroxypropylcellulose) (HPC)
[15] = dose: 25.0 mg/kg/injection, schedule: Q01DX009 (ip), vehicle: saline
[16] = dose: 50.0 mg/kg/injection, schedule: Q01DX009 (ip), vehicle: saline

Measured: T/C

COc1cccc(CN2CC(C)N(N=Cc3c4c(O)c5c(O)c(C)c6c(c5c3O)C(=O)C(C)(O/C=C/C(OC)C(C)C(OC(C)=O)C(C)C(O)C(C)C(O)C(C)/C=C/C=C(\C)C(=O)N4)O6)C(C)C2)c1 (stereo not given)
inactive: [1] 96 % of control | [2] 95 % of control | [3] 99 % of control

CCOC(=O)Nc1cc(NC/C(=N/O)c2ccc([N+](=O)[O-])cc2)c([N+](=O)[O-])c(N)n1
inactive: dose: 50.0 mg/kg/injection, schedule: Q01DX001 (ip), vehicle: saline with Tween-80 92 % of control | dose: 100.0 mg/kg/injection, schedule: Q01DX001 (ip), vehicle: saline with Tween-80 92 % of control | dose: 200.0 mg/kg/injection, schedule: Q01DX001 (ip), vehicle: saline with Tween-80 89 % of control

COC(=O)NC(=Nc1cccc(C(=O)c2ccc3nc(NC(=O)OC)[nH]c3c2)c1)NC(=O)OC
inactive: [4] 90 % of control

c1ccc2c3c(ccc2c1)OCN(C12CC4CC(CC(C4)C1)C2)C3
inactive: [5] 100 % of control | [6] 110 % of control | [7] 110 % of control

CCOC(=O)c1sc(SSc2sc(C(=O)OCC)c(C)c2[N+](=O)[O-])c([N+](=O)[O-])c1C
inactive: dose: 1.56 mg/kg/injection, schedule: Q01DX009 (ip), vehicle: saline with Tween-80 94 % of control | dose: 3.12 mg/kg/injection, schedule: Q01DX009 (ip), vehicle: saline with Tween-80 101 % of control | dose: 6.25 mg/kg/injection, schedule: Q01DX009 (ip), vehicle: saline with Tween-80 93 % of control | dose: 12.5 mg/kg/injection, schedule: Q01DX009 (ip), vehicle: saline with Tween-80 88 % of control | dose: 25.0 mg/kg/injection, schedule: Q04DX003 (ip), vehicle: saline with Tween-80 102 % of control | [8] 93 % of control | [5] 86 % of control and 97 % of control

Nn1c(-c2nn[nH]n2)nnc1-c1nn[nH]n1
inactive: [9] 100 % of control | [10] 100 % of control | dose: 100.0 mg/kg/injection, schedule: Q01DX005 (ip), vehicle: Klucel (hydroxypropylcellulose) (HPC) 95 % of control

CC(C)(C)OC(=O)N[C@@H](CNOCc1ccccc1)C(N)=O
inactive: [11] 92 % of control | [12] 92 % of control | [13] 86 % of control

COCC(Cl)/C(N)=N\S(=O)(=O)c1c(C)cc(Cl)cc1Cl (stereo not given)
inactive: dose: 60.0 mg/kg/injection, schedule: Q01DX005 (ip), vehicle: saline with Tween-80 101 % of control | [4] 100 % of control | dose: 240.0 mg/kg/injection, schedule: Q01DX005 (ip), vehicle: saline with Tween-80 96 % of control

Cc1c(Cl)cccc1NS(=O)(=O)c1ccccc1
inactive: [5] 104 % of control | [6] 104 % of control | [7] 90 % of control

Cc1ncc2c(=O)c3c(ccc4ccccc43)oc2n1
inactive: [8] 96 % of control | [5] 96 % of control | [6] 97 % of control | [7] 103 % of control

COc1cccc2c1C(=O)c1c(O)c3c(c(O)c1C2=O)CC(O)(C(C)=O)CC3O (stereo not given)
inactive: dose: 6.25 mg/kg/injection, schedule: Q01DX009 (ip), vehicle: other 100 % of control | dose: 12.5 mg/kg/injection, schedule: Q01DX009 (ip), vehicle: other 92 % of control | dose: 25.0 mg/kg/injection, schedule: Q01DX009 (ip), vehicle: other 91 % of control | dose: 50.0 mg/kg/injection, schedule: Q01DX009 (ip), vehicle: other 91 % of control | dose: 100.0 mg/kg/injection, schedule: Q01DX009 (ip), vehicle: other 119 % of control | dose: 200.0 mg/kg/injection, schedule: Q01DX009 (ip), vehicle: other 92 % of control | dose: 400.0 mg/kg/injection, schedule: Q01DX009 (ip), vehicle: other 98 % of control

CC(C)CN(CC(C)C)c1nn[nH]n1
inactive: [11] 103 % of control | [12] 100 % of control | [13] 103 % of control

c1ccc(-c2nc(N3CCN(c4ccco4)CC3)c3c4c(sc3n2)CCC4)cc1
inactive: [14] 97 % of control | [9] 90 % of control | [10] 90 % of control and 91 % of control

C/C(=C\c1ccc(OCC(=O)O)c(Cl)c1Cl)[N+](=O)[O-]
inactive: dose: 12.5 mg/kg/injection, schedule: Q01DX001 (ip), vehicle: saline with Tween-80 100 % of control and 102 % of control | dose: 25.0 mg/kg/injection, schedule: Q01DX001 (ip), vehicle: saline with Tween-80 98 % of control and 100 % of control

CCCCCCCCCCN(CCCCCCCCCC)C1CC(OC2CC(O)(C(C)=O)Cc3c(O)c4c(c(O)c32)C(=O)c2c(OC)cccc2C4=O)OC(C)C1O (stereo not given)
inactive: dose: 3.13 mg/kg/injection, schedule: Q01DX009 (ip), vehicle: distilled water + Tween-80 113 % of control | dose: 4.7 mg/kg/injection, schedule: Q04DX003 (ip), vehicle: other 104 % of control | dose: 6.25 mg/kg/injection, schedule: Q01DX009 (ip), vehicle: distilled water + Tween-80 96 % of control | dose: 9.4 mg/kg/injection, schedule: Q04DX003 (ip), vehicle: other 104 % of control | dose: 12.5 mg/kg/injection, schedule: Q01DX009 (ip), vehicle: distilled water + Tween-80 102 % of control | dose: 18.8 mg/kg/injection, schedule: Q04DX003 (ip), vehicle: other 112 % of control | dose: 37.5 mg/kg/injection, schedule: Q04DX003 (ip), vehicle: other 105 % of control | dose: 75.0 mg/kg/injection, schedule: Q04DX003 (ip), vehicle: other 103 % of control

N#CC(C#N)=CN
inactive: [1] 94 % of control | [2] 103 % of control | [3] 103 % of control

COc1ccc(-c2c3c(cc4cc5c(cc24)OCO5)C(=O)OC3)cc1OC
inactive: dose: 12.0 mg/kg/injection, schedule: Q01DX009 (ip), vehicle: Klucel (hydroxypropylcellulose) (HPC) 110 % of control | dose: 24.0 mg/kg/injection, schedule: Q01DX009 (ip), vehicle: Klucel (hydroxypropylcellulose) (HPC) 91 % of control | dose: 48.0 mg/kg/injection, schedule: Q01DX009 (ip), vehicle: Klucel (hydroxypropylcellulose) (HPC) 86 % of control | dose: 96.0 mg/kg/injection, schedule: Q01DX009 (ip), vehicle: Klucel (hydroxypropylcellulose) (HPC) 88 % of control

COc1ccc(C(=O)O[C@@H]2CCN3CC[C@H](C)[C@H]23)cc1
inactive: [14] 102 % of control | [9] 102 % of control | [10] 104 % of control

O=C(CC1(O)C(=O)Nc2ccccc21)c1ccccn1 (stereo not given)
inactive: dose: 50.0 mg/kg/injection, schedule: Q01DX009 (ip), vehicle: Klucel (hydroxypropylcellulose) (HPC) 102 % of control | dose: 100.0 mg/kg/injection, schedule: Q01DX009 (ip), vehicle: Klucel (hydroxypropylcellulose) (HPC) 97 % of control | dose: 200.0 mg/kg/injection, schedule: Q01DX009 (ip), vehicle: Klucel (hydroxypropylcellulose) (HPC) 100 % of control

CC1CCCN(CCSSCCN2CCCC(C)C2)C1 (stereo not given)
inactive: dose: 12.5 mg/kg/injection, schedule: Q01DX009 (ip), vehicle: saline 109 % of control | [15] 113 % of control | [16] 113 % of control

CCOC(=O)C1=C(C#N)C2(CCC(OCc3ccccc3)CC2)C(=O)O1 (stereo not given)
inactive: dose: 25.0 mg/kg/injection, schedule: Q01DX009 (ip), vehicle: saline with Tween-80 90 % of control | [15] 104 % of control | [1] 92 % of control | [16] 104 % of control and 106 % of control and 100 % of control | [2] 119 % of control | dose: 100.0 mg/kg/injection, schedule: Q01DX009 (ip), vehicle: saline 108 % of control and 116 % of control and 102 % of control | [3] 123 % of control | dose: 200.0 mg/kg/injection, schedule: Q01DX009 (ip), vehicle: saline 119 % of control and 100 % of control

CCCCOC(=S)Nc1ccccc1
inactive: dose: 50.0 mg/kg/injection, schedule: Q01DX009 (ip), vehicle: saline + Tween-80 + alcohol 99 % of control | [1] 104 % of control | dose: 100.0 mg/kg/injection, schedule: Q01DX009 (ip), vehicle: saline + Tween-80 + alcohol 108 % of control | [2] 100 % of control | dose: 200.0 mg/kg/injection, schedule: Q01DX009 (ip), vehicle: saline + Tween-80 + alcohol 98 % of control | [3] 98 % of control | dose: 400.0 mg/kg/injection, schedule: Q01DX009 (ip), vehicle: saline + Tween-80 + alcohol 97 % of control | dose: 400.0 mg/kg/injection, schedule: Q01DX009 (ip), vehicle: saline with Tween-80 110 % of control

CC(O)C1CCNCC1 (stereo not given)
inactive: dose: 50.0 mg/kg/injection, schedule: Q01DX005 (ip), vehicle: saline 102 % of control | dose: 100.0 mg/kg/injection, schedule: Q01DX005 (ip), vehicle: saline 97 % of control
